Experimental data: US12421225B2, “Heteroaromatic amide derivative and medicament containing the same” (KAKEN PHARMACEUTICAL CO., LTD., priority 2018, dated 2025)

Target: human Nav1.7 (Homo sapiens (Human), UniProt Q15858)
Test: Human Nav1.7 inhibitory activity evaluation (automated patch clamp QPatch16X, HEK293A cells stably expressing human Nav1.7 and human Navβ1)
Format: cell-based
Details: HEK293A cells stably expressing human Nav1.7 and human Navβ1, automated patch clamp QPatch16X
Description: Test Example 1: Human Nav1.7 Inhibitory Activity Evaluation
A cell line in which human Nav1.7 and human Navβ1 subunits were stably expressed in HEK293A cells was used. Dulbecco's Modified Eagle Medium (DMEM) supplemeted with 10% fetal bovine serum, 600 μg/ml geneticin, and 2 μg/ml blasticidin S were used as culture medium under the conditions of 37° C. and 5% CO2 in T175 flasks to carry out culturing. When 60-80% confluence was reached, the cells were detached and a cell suspension of about 0.5-5.0×10^6 cells/mL was prepared. The amount of current through human Nav1.7 was recorded using a fully automatic patch clamp device QPatch16X (Sophion Biosciences) at room temperature. As the extracellular solution, the solution of 145 mM NaCl, 4 mM KCl, 1 mM MgCl2, 2 mM CaCl2, 10 mM Glucose, 10 mM 4-(2-hydroxyethyl)-1-piperazine ethanesulfonic acid (HEPES) at pH 7.4 was used. As the intracellular solution, the solution of 135 mM CsF, ⅕ mM glycol ether diaminetetraacetic acid (EGTA)/CsOH, 10 mM HEPES, 10 mM NaCl at pH 7.3 was used. The test compounds were dissolved in dimethyl sulfoxide (DMSO) and diluted with the extracellular solution to attain the DMSO concentration of 0.1% at the time of assay.
The current response was obtained at a sampling frequency of 25 kHz, and noise was removed with a 3 kHz low-pass filter. The holding potential was −100 mV. Correction of the leakage current was carried out by applying a step pulse of −120 mV before the test pulse. In order to investigate inhibitory action of the test compound, the following test pulse was given: Namely, after depolarizing pulse of −10 mV was applied for 50 milliseconds, it was fixed at −120 mV for 500 milliseconds; a potential at which about 30-40% of the channel was inactivated was maintained for 15 seconds, then fixed again at −120 mV for 100 milliseconds, and finally a −10 mV depolarization pulse was given for 50 milliseconds. Test pulses were given before and after the test compound addition.
The inhibitory activity of the test compound was determined based on the amount of inward current generated by the second depolarization pulse, and the 50% inhibitory concentration (IC50) was calculated from the concentration-response curve.

Chain of human Nav1.7 (Q15858 whole entry): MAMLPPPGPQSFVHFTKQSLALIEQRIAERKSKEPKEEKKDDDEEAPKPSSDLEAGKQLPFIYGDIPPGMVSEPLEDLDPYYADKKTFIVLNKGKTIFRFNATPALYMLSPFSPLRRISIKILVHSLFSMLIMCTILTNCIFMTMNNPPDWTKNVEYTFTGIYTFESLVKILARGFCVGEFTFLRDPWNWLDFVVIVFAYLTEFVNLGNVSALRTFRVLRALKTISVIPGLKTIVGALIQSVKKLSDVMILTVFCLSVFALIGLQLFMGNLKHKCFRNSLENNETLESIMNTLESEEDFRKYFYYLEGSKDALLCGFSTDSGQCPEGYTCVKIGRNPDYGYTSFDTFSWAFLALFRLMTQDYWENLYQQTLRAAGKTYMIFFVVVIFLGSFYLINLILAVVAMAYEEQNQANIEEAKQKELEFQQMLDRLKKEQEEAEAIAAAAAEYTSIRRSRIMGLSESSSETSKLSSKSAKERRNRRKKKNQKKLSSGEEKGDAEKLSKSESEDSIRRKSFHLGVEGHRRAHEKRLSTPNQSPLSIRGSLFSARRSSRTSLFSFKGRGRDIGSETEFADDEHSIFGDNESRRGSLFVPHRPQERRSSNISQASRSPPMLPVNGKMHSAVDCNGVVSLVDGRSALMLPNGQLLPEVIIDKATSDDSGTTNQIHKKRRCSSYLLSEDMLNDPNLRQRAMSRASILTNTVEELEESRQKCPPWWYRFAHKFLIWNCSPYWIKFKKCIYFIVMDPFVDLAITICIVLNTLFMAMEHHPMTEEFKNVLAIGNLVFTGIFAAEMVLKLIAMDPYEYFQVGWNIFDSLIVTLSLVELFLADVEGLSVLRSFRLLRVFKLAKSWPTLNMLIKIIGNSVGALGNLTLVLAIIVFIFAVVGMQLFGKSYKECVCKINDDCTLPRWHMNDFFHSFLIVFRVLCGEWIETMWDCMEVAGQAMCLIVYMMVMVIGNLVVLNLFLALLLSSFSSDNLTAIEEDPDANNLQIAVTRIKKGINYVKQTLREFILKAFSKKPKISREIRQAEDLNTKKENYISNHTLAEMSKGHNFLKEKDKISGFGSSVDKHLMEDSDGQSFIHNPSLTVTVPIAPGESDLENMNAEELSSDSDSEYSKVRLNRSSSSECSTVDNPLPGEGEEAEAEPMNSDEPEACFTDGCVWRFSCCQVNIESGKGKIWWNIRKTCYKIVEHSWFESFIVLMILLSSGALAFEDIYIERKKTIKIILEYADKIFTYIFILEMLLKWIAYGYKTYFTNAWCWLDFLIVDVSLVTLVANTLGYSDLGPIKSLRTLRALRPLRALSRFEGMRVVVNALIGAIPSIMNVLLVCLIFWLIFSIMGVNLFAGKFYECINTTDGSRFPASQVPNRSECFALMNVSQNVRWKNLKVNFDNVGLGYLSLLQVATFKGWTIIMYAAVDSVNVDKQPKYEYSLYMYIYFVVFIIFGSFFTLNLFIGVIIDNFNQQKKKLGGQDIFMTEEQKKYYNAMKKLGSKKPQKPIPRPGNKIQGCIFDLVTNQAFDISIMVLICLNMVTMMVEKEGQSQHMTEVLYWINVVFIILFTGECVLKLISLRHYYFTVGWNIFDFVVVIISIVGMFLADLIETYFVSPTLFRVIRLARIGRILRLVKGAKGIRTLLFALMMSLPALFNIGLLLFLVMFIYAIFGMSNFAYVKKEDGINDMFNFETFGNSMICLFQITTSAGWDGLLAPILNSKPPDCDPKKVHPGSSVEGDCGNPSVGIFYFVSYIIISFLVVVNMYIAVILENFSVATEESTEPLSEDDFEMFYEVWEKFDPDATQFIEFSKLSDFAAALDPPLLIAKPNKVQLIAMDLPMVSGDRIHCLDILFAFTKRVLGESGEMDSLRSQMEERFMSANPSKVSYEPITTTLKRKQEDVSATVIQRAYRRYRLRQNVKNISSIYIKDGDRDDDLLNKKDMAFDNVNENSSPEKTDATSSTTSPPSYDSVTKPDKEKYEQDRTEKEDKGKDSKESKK
Chain of human Nav1.7 (Q07699 19-218 partner): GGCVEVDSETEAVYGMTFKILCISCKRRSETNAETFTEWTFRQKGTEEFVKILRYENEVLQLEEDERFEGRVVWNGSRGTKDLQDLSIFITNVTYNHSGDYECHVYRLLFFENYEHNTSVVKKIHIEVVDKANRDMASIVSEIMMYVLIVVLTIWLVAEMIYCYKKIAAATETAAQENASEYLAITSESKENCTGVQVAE

Row | IC50 [nM] | Compound
1 | < 1000 | O=C(N[C@H]1COc2ccc(Cl)cc2C1)c1cc2n(n1)CCC(COCC1CC1)O2 (some centres unmarked) [Example 106]
2 | < 10000 | CN(Cc1ccccc1)CC1CCn2nc(C(=O)N[C@H]3COc4ccc(Cl)cc4C3)cc2O1 (some centres unmarked) [Example 121]
3 | < 10000 | COc1cccc(-c2c(C(=O)N[C@H]3COc4ccccc4C3)nn3c2CCCC3)n1 [Example 69]
4 | < 10000 | O=C(NC1COc2cccc(C3CC3)c2C1)c1cn2c(n1)CCC(C(F)(F)F)C2 (centres unmarked) [Example 10]
5 | < 1000 | O=C(c1cn2c(n1)CCC(C1CCCCC1)C2)N1CCC1Cc1ccccc1 (centres unmarked) [Example 31]
6 | < 1000 | CCC1CCn2nc(C(=O)N[C@H]3COc4ccc(-c5cnc(OC)nc5)cc4C3)cc2O1 (some centres unmarked) [Example 93]
7 | < 1000 | O=C(N[C@H]1COc2ccc(Cl)cc2C1)c1nc2n(c1-c1ccccn1)CCCC2 [Example 18, (R)—N-(6-chlorochroman-3-yl)-3-(pyridin-2-yl)-5,6,7,8-tetrahydroimidazo[1,2-a]pyridine-2-carboxamide]
8 | < 10000 | O=C(N[C@H]1COc2ccccc2C1)c1cn2c(n1)CNC(CCc1ccc(F)cc1)C2 (some centres unmarked) [Example 53]
9 | < 10000 | O=C(N[C@H]1COc2ccc(CO)cc2C1)c1cc2n(n1)CCC(c1ccccc1F)O2 (some centres unmarked) [Example 82]

Same assay, conditions: human Nav1.7, automated patch clamp

Row | IC50 [nM] | Compound
10 | < 10000 | O=C(N[C@H]1COc2ccc(-c3ccncc3)cc2C1)c1cc2n(n1)CCC(C(F)(F)F)O2 (some centres unmarked) [Example 376]
11 | < 10000 | COc1c(C(F)(F)F)ccc2c1C[C@@H](NC(=O)c1cc3n(n1)CCC(C(F)F)O3)CO2 (some centres unmarked) [Example 551]
12 | < 1000 | O=C(N[C@H]1COc2ccc(C(F)(F)F)cc2C1O)c1cc2n(n1)CCC(COCC1CC1)O2 (some centres unmarked) [Example 558]
13 | < 1000 | N#Cc1ccc2c(c1)C[C@@H](NC(=O)c1cc3n(n1)CCC(Cc1ccc(F)cc1)O3)CO2 (some centres unmarked) [Example 384]
14 | < 1000 | O=C(N[C@H]1COc2ccc(COCC(F)(F)F)cc2C1)c1cc2n(n1)CCC(C(F)(F)F)CO2 (some centres unmarked) [Example 632]
15 | < 1000 | O=C(NC1COc2ccc(F)c(F)c2C1)c1cc2n(n1)CC(CCOCC1CC1)O2 (centres unmarked) [Example 639]
16 | < 1000 | O=C(N[C@H]1COc2ccc(Cl)cc2C1)c1cc2n(n1)CCC(C1CC1)O2 (some centres unmarked) [Example 387]
17 | < 1000 | CC1CCn2nc(C(=O)N[C@H]3COc4ccc(Cl)cc4C3)c(-c3ccccc3)c2O1 (some centres unmarked) [Example 444]
18 | < 10000 | O=C(NC1COc2ccc(F)c(F)c2C1)c1cc2n(n1)CCC(COCC(F)(F)F)O2 (centres unmarked) [Example 627]
19 | < 10000 | O=C(N[C@H]1COc2ccc(COCC(F)(F)F)cc2C1)c1cc2n(n1)CC(C(F)(F)F)O2 (single isomer, unassigned) [184 (isomer B)]
20 | < 1000 | O=C(N[C@H]1COc2ccc(CC(F)F)cc2C1)c1cc2n(n1)C[C@H](CC1CCOCC1)O2 (single isomer, unassigned; isomer a) [590(isomer A)]
21 | < 1000 | CC(C)OCCN1CCn2nc(C(=O)N[C@H]3COc4ccc(C(F)(F)F)cc4C3F)cc2C1 (some centres unmarked) [Example 671]
22 | < 1000 | COC1c2cc(C(F)(F)F)ccc2OC[C@@H]1NC(=O)c1cc2n(n1)CCC(COCC(F)(F)F)O2 (some centres unmarked) [Example 570]
23 | < 10000 | O=C(N[C@H]1COc2ccc(C(F)(F)F)cc2C1O)c1cc2n(n1)CCC(COCC1CC1)O2 (some centres unmarked) [Example 559]
24 | < 1000 | O=C(N[C@H]1COc2ccc(C(F)(F)F)cc2C1)c1cc2n(n1)CC(COCCOCC(F)(F)F)O2 (some centres unmarked) [Example 657]
25 | < 1000 | COc1ccc(C2CCn3nc(C(=O)N[C@H]4COc5ccc(Cl)cc5C4)cc3O2)cn1 (some centres unmarked) [Example 371]
26 | < 1000 | N#Cc1ccc2c(c1)C[C@@H](NC(=O)c1cc3n(n1)CCC(CCOC(F)(F)F)O3)CO2 (single isomer, unassigned) [144 (isomer A)]
27 | < 1000 | O=C(N[C@H]1COc2ccc(C(F)(F)F)cc2C1F)c1cc2n(n1)CCN(CCOCC(F)F)C2 (some centres unmarked) [Example 678]
28 | < 1000 | N#Cc1ccc2c(c1)C(F)[C@@H](NC(=O)c1cc3n(n1)CC(CCOCC1CC1)O3)CO2 (some centres unmarked) [Example 650]
29 | < 1000 | C=C1CCn2nc(C(=O)N[C@H]3COc4ccc(Cl)cc4C3)cc2O1 [Example 379]
30 | < 1000 | CN1Cc2nc(C(=O)N3CCC(F)(c4ccccc4Cl)C3)cn2CC1c1ccccc1 (centres unmarked) [Example 329]
31 | < 10000 | O=C(N[C@H]1COc2ccc(COCC(F)(F)F)cc2C1)c1cc2n(n1)CCC(C1COCCO1)O2 (some centres unmarked) [Example 638]

Row | IC50 [nM] | Compound
32 | < 1000 | O=C(N[C@H]1COc2ccc(CC(F)F)cc2C1)c1cc2n(n1)CC(CCOC1CCC1)O2 (some centres unmarked) [Example 471]
33 | < 10000 | Cc1cc(-c2c(C(=O)N[C@H]3COc4ccc(C(F)(F)F)cc4C3)nc3n2CCOC3)[nH]n1 [Example 512]
34 | < 10000 | O=C(N[C@H]1COc2ccc(-c3cnc(N4CCC4)nc3)cc2C1)c1cc2n(n1)CCC(C(F)(F)F)O2 (some centres unmarked) [Example 380]
35 | < 1000 | O=C(N[C@H]1COc2ccc(C(F)(F)F)cc2C1F)c1cc2n(n1)CCN(CCOCC(F)(F)F)C2 (some centres unmarked) [Example 645]
36 | < 1000 | O=C(N[C@H]1COc2ccc(Cl)cc2C1)c1cc2n(n1)CC(C(F)(F)COCC1CC1)O2 (some centres unmarked) [Example 449]
37 | < 1000 | O=C(N[C@H]1COc2ccc(C(F)(F)F)cc2C1F)c1cc2n(n1)CCN(CCOC1CCC1)C2 (some centres unmarked) [Example 625]
38 | < 1000 | O=C(N[C@H]1COc2ccc(C(F)(F)F)cc2C1)c1cc2n(n1)CCN(CCOCC(F)(F)F)C2 [Example 644]
39 | < 1000 | COc1cccc(-c2c(C(=O)N[C@H]3COc4ccc(C(F)(F)F)cc4C3O)nn3c2COCC3)n1 (some centres unmarked) [Example 529]
40 | < 1000 | O=C(N[C@H]1COc2ccc(COCC(F)(F)F)cc2C1)c1cc2n(n1)CCC(CC1CCOCC1)O2 (some centres unmarked) [Example 655]
41 | < 10000 | O=C(NC1COc2ccccc2C1)c1cc2n(n1)CCN(C(=O)CCc1ccccc1)C2 (centres unmarked) [Example 510]
42 | < 10000 | N#Cc1ccc2c(c1)C[C@@H](NC(=O)c1cc3n(n1)CCN(C1CCCC1)C3)CO2 [Example 271]
43 | < 10000 | N#Cc1ccc2c(c1)C[C@@H](NC(=O)c1cc3n(n1)CCN(C1(CC(F)(F)F)CC1)C3)CO2 [Example 503]
44 | < 10000 | N#CCc1cccc2c1CC(NC(=O)c1cn3c(n1)CCC(C(F)(F)F)C3)CO2 (centres unmarked) [Example 297]
45 | < 10000 | CC(C)CN1CCn2nc(C(=O)N[C@H]3COc4ccc(C#N)cc4C3)cc2C1 [Example 270]
46 | < 10000 | O=C(N[C@H]1COc2ccc(C(F)(F)F)cc2C1)c1cc2n(n1)CC(CCN1CC(F)(F)C1)O2 (some centres unmarked) [Example 235]
47 | < 10000 | N#Cc1ccc2c(c1)C(F)[C@@H](NC(=O)c1cc3n(n1)CCC(C(F)(F)F)O3)CO2 (some centres unmarked) [Example 648]
48 | < 10000 | N#Cc1ccc2c(c1)C[C@@H](NC(=O)c1cc3n(n1)CCC(CSC(F)(F)F)O3)CO2 (single isomer, unassigned) [156 (isomer B)]
49 | < 10000 | CCOC(C)c1ccc2c(c1)C[C@@H](NC(=O)c1cc3n(n1)CCC(c1ccccc1F)O3)CO2 (some centres unmarked) [Example 365]
50 | < 1000 | CCC1CCn2nc(C(=O)N[C@H]3COc4ccc(C(F)(F)F)cc4C3O)cc2O1 (some centres unmarked) [Example 599]
51 | < 1000 | O=C(N[C@H]1COc2ccc(C(F)(F)F)cc2C1F)c1cc2n(n1)CCC(COCCOCC(F)(F)F)O2 (some centres unmarked) [Example 665]
52 | < 1000 | O=C(N[C@H]1COc2ccc(C(F)(F)F)cc2C1O)c1cc2n(n1)CC(CCOCC(F)(F)F)O2 (some centres unmarked) [Example 588]
53 | < 1000 | O=C(N[C@H]1COc2ccc(C(F)(F)F)cc2C1)c1nn2c(c1-c1cccc(C(O)C(F)(F)F)n1)COCC2 (some centres unmarked) [Example 527]
